Test results from patent US7816566B2, “p-Menthan-3-ol alkylated derivatives and their use as refreshing agents” (Robertet S.A., priority 2004, dated 2010).
Like-named read-outs stand apart in the source and are kept apart here.

Key:
[1] = refreshing effect in a mouthwash flavouring composition; assay type: in vivo; settings: approximately 0.2 g per litre of prepared mouthwash
Source text: Approximately 0.2 g of (−)-(1R,3R,4S)-3-hydroxy-p-menthane-3-methanol is used per litre of prepared mouthwash.

[2] = refreshing effect in boiled sweets; assay type: in vivo; settings: 0.2 g per kilogramme of final product
Procedure: A solution of saccharose (350 g) in water (110 g) is prepared which is boiled at 107° C. 150 g of glucose syrup is added and boiled at 148° C. The flavouring, citric acid and colouring agent are added at a temperature of approximately 120°, and 0.2 g of (−)-(1R,3R,4S)-3-hydroxy-p-menthane-3-methanol is added per kilogramme of final product.

[3] = cited from earlier work; for refreshing effect: prior art
[4] = prior art; cited from earlier work
[5] = hydrophilic nature of the compound; assay type: physicochemical
[6] = organoleptic evaluation of the compounds: refreshing effect, bitterness, odour; assay type: in vivo; settings: sensation of freshness, intensity in words
[7] = refreshing effect in a tobacco flavouring composition; assay type: in vivo; settings: approximately 0.05 g per kilogram of tobacco
Source text: Approximately 0.05 g of (−)-(1R,3R,4S)-3-hydroxy-p-menthane-3-[…] is used per kilogram of tobacco.

| SMILES | melting point [°C] | refreshing effect [6] | also measured |
| --- | --- | --- | --- |
| CC(C)[C@@H]1CC[C@@H](C)C[C@]1(O)CCO [1b, (−)-(1R,3S,4S)-3-hydroxy-p-menthane-3-ethanol] | 84 to 86 | – | – |
| CC(C)[C@@H]1CC[C@@H](C)C[C@]1(O)CO [2a, (−)-(1R,3R,4S)3-hydroxy-p-menthane-3-methanol] | 80 to 82 | – | refreshing effect [1]: A refreshing effect is obtained; refreshing effect [2]: A very distinct refreshing effect is obtained |
| CC1=C(N2CCCC2)C(=O)OC1 [4-methyl-3-(1-pyrrolidinyl)-2[5H]furanone] | – | – | refreshing effect [3]: very intense refreshing effect |
| CC(C)[C@@H]1CC[C@@H](C)C[C@H]1O [l-menthol] | – | – | volatility [4]: too high volatility; burning sensation ([3]; when used at a high concentration): can cause a burning sensation |
| CC(C)[C@@H]1CC[C@@H](C)C[C@]1(O)C(O)CO (stereo partly drawn) [compound 3, (1R,3R,4S)-3-hydroxy-p-menthane-3-(ethane-1,2-diol)] | – | intense | hydrophilic nature [5]: hydrophilic |
| CC(C)[C@@H]1CC[C@@H](C)C[C@@]1(O)CC(C)(C)O [compound 6] | – | reduced intensity | – |
| CC(C)[C@@H]1CC[C@@H](C)C[C@@]1(O)CO [2b, (−)-(1R,3S,4S)-3-hydroxy-p-menthane-3-methanol] | 48 to 50 | – | – |
| CNC(=O)C(C)(C(C)C)C(C)C [2-isopropyl-N,2,3-trimethylbutyramide] | – | – | refreshing effect [3]: very active |
| CC(C)[C@@H]1CC[C@@H](C)C[C@@]1(O)C(C)CO (some centres unmarked) [compound 4] | – | reduced intensity | – |
| CC(C)[C@@H]1CC[C@@H](C)C[C@@]1(O)CCO [1a, (−)-(1R,3R,4S)-3-hydroxy-p-menthane-3-ethanol] | 80 to 82 | – | refreshing effect [7]: A refreshing effect is obtained |
| CC(O)C[C@]1(O)C[C@H](C)CC[C@H]1C(C)C (some centres unmarked) [compound 5] | – | reduced intensity | – |
| CC(C)[C@@H]1CC[C@@H](C)C[C@]1(CO)OCCO [compound 11] | – | not endowed with a particularly intense refreshing effect | – |
